What was measured:
[1] = molecular target: T1, 5-HT1A receptor (Rattus norvegicus, UniProt P19327); experiment: 5-HT1A receptor binding activity in rat hippocampal membrane homogenate
T1 construct: rat hippocampal membrane homogenate; from tissue; host or cells: rat hippocampal membrane homogenate
T1 sequence (P19327 1-422): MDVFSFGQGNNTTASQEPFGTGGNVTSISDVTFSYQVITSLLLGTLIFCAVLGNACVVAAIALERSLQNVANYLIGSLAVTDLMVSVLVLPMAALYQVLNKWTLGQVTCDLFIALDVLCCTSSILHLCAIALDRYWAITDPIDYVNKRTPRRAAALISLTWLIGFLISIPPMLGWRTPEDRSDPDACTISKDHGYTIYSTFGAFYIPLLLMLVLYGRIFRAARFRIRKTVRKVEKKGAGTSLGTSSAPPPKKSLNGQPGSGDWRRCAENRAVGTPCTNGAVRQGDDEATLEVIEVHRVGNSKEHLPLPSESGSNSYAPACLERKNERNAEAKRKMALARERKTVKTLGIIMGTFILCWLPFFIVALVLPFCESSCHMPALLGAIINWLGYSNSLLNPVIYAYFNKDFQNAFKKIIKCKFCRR
Description: The compounds of the invention were tested for 5-HT1A receptor binding activity in rat hippocampal membrane homogenate by the method of B S Alexander and M D Wood, J Pharm Pharmacol, 1988, 40, 888-891.

[2] = test system: α1; experiment: affinity for the α1 site (procedure of A L Marrow et al); type: binding

| IC50 [1] [nM] | IC50 [2] [nM] | SMILES |
| --- | --- | --- |
| 38 | 2900 | COc1ccccc1N1CCN(CC(C(=O)NC(C)(C)C)c2ccccn2)CC1 (stereo not shown) [Example 1, N-tert-Butyl-3-[4-(2-methoxyphenyl)piperazin-1-yl]-2-(2-pyridyl)propanamide] |
| 0.8 | 147 | COc1ccccc1N1CCN(CCC(C(=O)N2CCCCCC2)c2cccs2)CC1 (stereo not shown) [Example 2, 2,3,4,5,6,7-Hexahydro-1-[2-(2-thiophenyl)-4-(1-(4-(2-methoxyphenyl)piperazinyl))]butyryl-1H-azepine] |
